Measurements: patent US12077503B2, “Substituted cyclic amides and their use as herbicides” (FMC CORPORATION, priority 2015, dated 2024)

What was measured:
Assay type in all cases: in vivo
[1] = tested on: sedge, umbrella (small-flower umbrella sedge, Cyperus difformis); assay: Test B flooded paddy test; details: Flood, 250 g ai/ha; 0 to 100 scale where 0 is no effect and 100 is complete control; 13 to 15 d
Method in brief: (§1)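 Response scored visually against untreated controls, 0 = no effect and 100 = complete control, 13–15 d after treatment in the greenhouse. Compounds added to paddy water held 3 cm above soil surface. Treatment given at 2-leaf stage.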

[2] = tested on: barnyardgrass (Echinochloa crus-galli); assay: Test B flooded paddy test; details: Flood, 250 g ai/ha; 0 to 100 scale where 0 is no effect and 100 is complete control; 13 to 15 d
Method in brief: as §1

rice (Oryra sativa) = assay: Test B flooded paddy test; details: Flood, 250 g ai/ha; 0 to 100 scale where 0 is no effect and 100 is complete control; 13 to 15 d
Method in brief: as §1

[3] = tested on: ducksalad (Heteranthera limosa); assay: Test B flooded paddy test; details: Flood, 250 g ai/ha; 0 to 100 scale where 0 is no effect and 100 is complete control; 13 to 15 d
Method in brief: as §1

[4] = tested on: blackgrass (Alopecurus myosuroides); assay: Test A postemergence; details: postemergence; for Blackgrass plant response rating: 125 g ai/ha, visual injury rating on 0 to 100 scale (0 no effect, 100 complete control), approx. 10 d; for Plant response rating, Blackgrass: 500 g ai/ha, 0 to 100 scale, 0 no effect, 100 complete control
Method in brief: (§2)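 Ratings of 0 (no effect) to 100 (complete control) come from visual comparison with untreated controls roughly 10 d after treatment. Test chemicals, formulated in a non-phytotoxic solvent mixture with surfactant, were applied either as a preemergence directed soil spray on seeded soil or postemergence to one- to two-leaf plants 2 to 10 cm tall.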

[5] = tested on: ragweed (common ragweed, Ambrosia elatior); assay: Test A postemergence; details: for Ragweed plant response rating: 125 g ai/ha, postemergence, visual injury rating on 0 to 100 scale (0 no effect, 100 complete control), approx. 10 d; for Plant response rating, Ragweed: Postemergence, 500 g ai/ha, 0 to 100 scale where 0 is no effect and 100 is complete control
Method in brief: as §2

[6] = tested on: Galium (catchweed bedstraw, Galium aparine); assay: Test A postemergence; details: for Galium plant response rating: 125 g ai/ha, postemergence, visual injury rating on 0 to 100 scale (0 no effect, 100 complete control), approx. 10 d; for Plant response rating, Galium: Postemergence, 500 g ai/ha, 0 to 100 scale where 0 is no effect and 100 is complete control
Method in brief: as §2

[7] = tested on: giant foxtail (Setaria faberii); assay: Test A postemergence; details: for Foxtail, Giant plant response rating: 125 g ai/ha, postemergence, visual injury rating on 0 to 100 scale (0 no effect, 100 complete control), approx. 10 d; for Plant response rating, Foxtail, Giant: Postemergence, 500 g ai/ha, 0 to 100 scale where 0 is no effect and 100 is complete control
Method in brief: as §2

[8] = tested on: barnyardgrass (Echinochloa crus-galli); assay: Test A postemergence; details: postemergence; for Barnyardgrass plant response rating: 125 g ai/ha, visual injury rating on 0 to 100 scale (0 no effect, 100 complete control), approx. 10 d; for Plant response rating, Barnyardgrass: 500 g ai/ha, 0 to 100 scale, 0 no effect, 100 complete control
Method in brief: as §2

Kochia (Kochia scoparia) [9] = assay: Test A postemergence; details: for Kochia plant response rating: 125 g ai/ha, postemergence, visual injury rating on 0 to 100 scale (0 no effect, 100 complete control), approx. 10 d; for Plant response rating, Kochia: Postemergence, 500 g ai/ha, 0 to 100 scale where 0 is no effect and 100 is complete control
Method in brief: as §2

[10] = tested on: ryegrass, Italian (Italian ryegrass, Lolium multiflorum); assay: Test A postemergence; details: for Ryegrass, Italian plant response rating: 125 g ai/ha, postemergence, visual injury rating on 0 to 100 scale (0 no effect, 100 complete control), approx. 10 d; for Plant response rating, Ryegrass, Italian: Postemergence, 500 g ai/ha, 0 to 100 scale where 0 is no effect and 100 is complete control
Method in brief: as §2

[11] = tested on: wheat (Triticum aestivum); assay: Test A postemergence; details: for Wheat plant response rating: 125 g ai/ha, postemergence, visual injury rating on 0 to 100 scale (0 no effect, 100 complete control), approx. 10 d; for Plant response rating, Wheat: Postemergence, 500 g ai/ha, 0 to 100 scale where 0 is no effect and 100 is complete control
Method in brief: as §2

[12] = tested on: pigweed (Amaranthus retroflexus); assay: Test A postemergence; details: for Pigweed plant response rating: 125 g ai/ha, postemergence, visual injury rating on 0 to 100 scale (0 no effect, 100 complete control), approx. 10 d; for Plant response rating, Pigweed: Postemergence, 500 g ai/ha, 0 to 100 scale where 0 is no effect and 100 is complete control
Method in brief: as §2

corn (Zea mays) = assay: Test A postemergence; details: postemergence; for Corn plant response rating: 125 g ai/ha, visual injury rating on 0 to 100 scale (0 no effect, 100 complete control), approx. 10 d; for Plant response rating, Corn: 500 g ai/ha, 0 to 100 scale, 0 no effect, 100 complete control
Method in brief: as §2

[13] = tested on: ragweed (common ragweed, Ambrosia elatior); assay: Test A preemergence; details: Preemergence; for Plant response rating, Ragweed: 125 g ai/ha, visual injury after approximately 10 d, 0 to 100 scale where 0 is no effect and 100 is complete control; for Ragweed plant response rating (0 to 100 scale, 0 is no effect, 100 is complete control): 500 g ai/ha, visual injury approx. 10 d
Method in brief: as §2

[14] = tested on: giant foxtail (Setaria faberii); assay: Test A preemergence; details: for Plant response rating, Foxtail, Giant: 125 g ai/ha, preemergence, 0 to 100 scale (0 no effect, 100 complete control); for Foxtail, Giant plant response rating (0 to 100 scale, 0 is no effect, 100 is complete control): Preemergence, 500 g ai/ha, visual injury approx. 10 d
Method in brief: as §2

[15] = tested on: barnyardgrass (Echinochloa crus-galli); assay: Test A preemergence; details: for Plant response rating, Barnyardgrass: 125 g ai/ha, preemergence, 0 to 100 scale (0 no effect, 100 complete control); for Barnyardgrass plant response rating (0 to 100 scale, 0 is no effect, 100 is complete control): Preemergence, 500 g ai/ha, visual injury approx. 10 d
Method in brief: as §2

Kochia (Kochia scoparia) [16] = assay: Test A preemergence; details: for Plant response rating, Kochia: 125 g ai/ha, preemergence, 0 to 100 scale (0 no effect, 100 complete control); for Kochia plant response rating (0 to 100 scale, 0 is no effect, 100 is complete control): Preemergence, 500 g ai/ha, visual injury approx. 10 d
Method in brief: as §2

[17] = tested on: ryegrass, Italian (Italian ryegrass, Lolium multiflorum); assay: Test A preemergence; details: Preemergence; for Plant response rating, Ryegrass, Italian: 125 g ai/ha, visual injury after approximately 10 d, 0 to 100 scale where 0 is no effect and 100 is complete control; for Ryegrass, Italian plant response rating (0 to 100 scale, 0 is no effect, 100 is complete control): 500 g ai/ha, visual injury approx. 10 d
Method in brief: as §2

[18] = tested on: pigweed (Amaranthus retroflexus); assay: Test A preemergence; details: Preemergence; for Plant response rating, Pigweed: 125 g ai/ha, visual injury after approximately 10 d, 0 to 100 scale where 0 is no effect and 100 is complete control; for Pigweed plant response rating (0 to 100 scale, 0 is no effect, 100 is complete control): 500 g ai/ha, visual injury approx. 10 d

SMILES | Plant response rating, Sedge, Umbrella [1] | Plant response rating, Barnyardgrass [2] | Plant response rating, Rice (rice (Oryra sativa)) | Plant response rating, Ducksalad [3] | Blackgrass plant response rating [4] | Plant response rating, Blackgrass [4] | Ragweed plant response rating [5] | Plant response rating, Ragweed [5] | Galium plant response rating [6] | Plant response rating, Galium [6] | Foxtail, Giant plant response rating [7] | Plant response rating, Foxtail, Giant [7] | Barnyardgrass plant response rating [8] | Plant response rating, Barnyardgrass [8] | Kochia plant response rating (Kochia (Kochia scoparia) [9]) | Plant response rating, Kochia (Kochia (Kochia scoparia) [9]) | Ryegrass, Italian plant response rating [10] | Plant response rating, Ryegrass, Italian [10] | Wheat plant response rating [11] | Plant response rating, Wheat [11] | also measured
CCc1ccc(C2CNC(=O)C2C(=O)Nc2ccccc2S(C)(=O)=O)cc1 (stereo not drawn) [Compound 468] | 0 | 35 | 0 | 85 | 0 | 20 | 0 | 0 | 20 | 30 | 0 | 0 | 0 | 30 | 0 | 20 | 0 | 0 | 0 | 20 | Pigweed plant response rating [12]: 0; Plant response rating, Pigweed [12]: 0; Corn plant response rating (corn (Zea mays)): 0; Plant response rating, Corn (corn (Zea mays)): 0; Plant response rating, Ragweed [13]: 0; Ragweed plant response rating (0 to 100 scale, 0 is no effect, 100 is complete control) [13]: 70; Plant response rating, Foxtail, Giant [14]: 0; Foxtail, Giant plant response rating (0 to 100 scale, 0 is no effect, 100 is complete control) [14]: 80; Plant response rating, Barnyardgrass [15]: 0; Barnyardgrass plant response rating (0 to 100 scale, 0 is no effect, 100 is complete control) [15]: 20; Plant response rating, Kochia (Kochia (Kochia scoparia) [16]): 40; Kochia plant response rating (0 to 100 scale, 0 is no effect, 100 is complete control) (Kochia (Kochia scoparia) [16]): 80; Plant response rating, Ryegrass, Italian [17]: 0; Ryegrass, Italian plant response rating (0 to 100 scale, 0 is no effect, 100 is complete control) [17]: 0; Plant response rating, Pigweed [18]: 0; Pigweed plant response rating (0 to 100 scale, 0 is no effect, 100 is complete control) [18]: 50
CN1CC(c2ccc(C(F)(F)F)cc2F)C(C(=O)Nc2ccc(F)cc2F)C1=O (stereo not drawn) [Compound 474] | 0 | 30 | 0 | 80 | 30 | 50 | 0 | 0 | 40 | 50 | 90 | 90 | 90 | 90 | 50 | 60 | 20 | 50 | 0 | 30 | Pigweed plant response rating [12]: 30; Plant response rating, Pigweed [12]: 30; Corn plant response rating (corn (Zea mays)): 0; Plant response rating, Corn (corn (Zea mays)): 20; Plant response rating, Ragweed [13]: 0; Ragweed plant response rating (0 to 100 scale, 0 is no effect, 100 is complete control) [13]: 20; Plant response rating, Foxtail, Giant [14]: 90; Foxtail, Giant plant response rating (0 to 100 scale, 0 is no effect, 100 is complete control) [14]: 90; Plant response rating, Barnyardgrass [15]: 90; Barnyardgrass plant response rating (0 to 100 scale, 0 is no effect, 100 is complete control) [15]: 90; Plant response rating, Kochia (Kochia (Kochia scoparia) [16]): 60; Kochia plant response rating (0 to 100 scale, 0 is no effect, 100 is complete control) (Kochia (Kochia scoparia) [16]): 70; Plant response rating, Ryegrass, Italian [17]: 0; Ryegrass, Italian plant response rating (0 to 100 scale, 0 is no effect, 100 is complete control) [17]: 50; Plant response rating, Pigweed [18]: 30; Pigweed plant response rating (0 to 100 scale, 0 is no effect, 100 is complete control) [18]: 90
